Numbered stars: 1 amine (or outer) side, 2 acyl side, 3 side chain; on linkers, the order of the positions; unused ones are H or OH. Bridge positions count the residues as written; N and C are the ends. Square brackets hold non-standard residues; d marks the D form. Peptide text beside a SMILES is read from it. * marks the point of attachment. C20 diacid = O=C(O)CCCCCCCCCCCCCCCCCCC(=O)*; γGlu = O=C(O)[C@H](CCC(=O)[*:2])N[*:1]; NMeI = CC[C@H](C)[C@H](NC)C(=O)O; Sar = CNCC(=O)O
Assays:
[1] = test system: rats self-selecting between a low-fat diet and a high-fat diet; assay: Food preference (FP) and development of obesity in rats fed on a high-fat diet (HFD); type: in vivo, Male Sprague Dawley rats; details: 30 nmol/kg sc, QW, 4 weeks
Method: (§1) Whole-blood glucose levels were determined on tail-vein blood samples by the Biosen (EKF Diagnostic, Germany) enzyme-based electrode method. Blood samples were analyzed for glycated hemoglobin (HbA1c) using a Cobas c111 analyzer (Roche Diagnostics, Mannheim, Germany). Plasma insulin levels were measured using a Meso Scale Discovery (MSD) system (Rockville, MD, USA). Liver fat content was determined by magnetic resonance (MR) scanning using an Echo systems MR scanner. Fat depots were measured by weighing of excised fat.
(§2) Male Sprague Dawley rats obtained from Taconic A/S, Denmark, were used in this study. The animals arrived at least 7 days before the study start to allow acclimatization to experimental conditions. From arrival and throughout the study, the rats were housed in groups of 2 (n = 2) in a light-, temperature- and humidity-controlled room (reversed 12/12 h light/dark cycle: lights turned off during day-time and on during night-time; temperature 20-22°C; relative humidity 50-80%) and maintained on a HFD (60% of total energy from fat, D12492, Research Diet Inc., New Brunswick, USA) for 2 weeks. Animals had access ad libitum to water (domestic quality tap water with citric acid added to pH ∼ 3.6) during the entire study. The rats were stratified according to body weight (primary) and % body weight gain from the beginning of feeding with HFD (secondary). Three days before the initiation of treatment the rats were allowed to self-select between a low-fat diet (LFD, standard chow, 11 % of total energy from fat, Atromin™ 1324, Brogaarden A/S, Gentofte, Denmark) and a high-fat diet, and they remained on the self-selected regimen for the duration of the study. Rats were treated for four weeks with Compound 18 [30 nmol/kg sc, once weekly (QW)] or vehicle.
Statistical analyses were performed using GraphPad™ Prism version 5. […]

Male Sprague Dawley rats [2] = assay: Efficacy testing: food preference (FP) and development of obesity in rats fed on a high-fat diet (HFD); type: in vivo; details: rats self-selecting LFD/HFD, 30 nmol/kg sc, QW, 4 weeks
Method: as §1, §2
Statistical analyses were performed using GraphPad™ Prism version 5.
The efficacy of Compound 18 in relation to change in food preference and in relation to the development of obesity were investigated by measurement of food preference, body weight, food intake, water intake, blood glucose levels, plasma insulin levels, mass of liver fat and mass of fat depots.

HFD-fed rats = assay: Development of obesity in rats fed on a high-fat diet (HFD); type: in vivo, Male Sprague Dawley rats
Method: as §1
(§3) Male Sprague Dawley rats obtained from Taconic A/S, Denmark, were used in this study. The animals arrived at least 7 days before the study start to allow acclimatization to experimental conditions. From arrival and throughout the study, the rats were housed in groups of 2 (n = 2) in a light-, temperature- and humidity-controlled room (reversed 12/12 h light/dark cycle: lights turned off during day-time and on during night-time; temperature 20-22°C; relative humidity 50-80%) and maintained on a HFD (60% of total energy from fat, D12492, Research Diet Inc., New Brunswick, USA) for 2 weeks. Animals had access ad libitum to water (domestic quality tap water with citric acid added to pH ∼ 3.6) during the entire study.The rats were stratified according to body weight (primary) and % body weight gain from the beginning of feeding with HFD (secondary), and treated for 4 weeks with Compound 18 [1, 5 and 30 nmol/kg sc, once weekly (QW)] and Compound 18 (5 nmol/kg sc, every 4th day), and with comparison/reference compounds NN96 (a pramlintide analogue, see Example 5; 30 nmol/kg sc, QW) and the marketed human GLP-1 receptor agonist liraglutide [50 nmol/kg sc, twice daily (bid)], respectively.
(§4) Post-hoc Dunnett's multiple comparison tests were conducted. When appropriate, the two-way ANOVA test was used followed by Bonferroni post tests; p < 0.05 was in all cases considered statistically significant.
(§5) The preventive effects of Compound 18 of the present invention on the development of obesity were investigated by measurement of body weight, food intake, water intake, blood glucose levels, plasma insulin levels, liver fat mass and fat depots.

Male Sprague Dawley rats [3] = assay: Efficacy testing: development of obesity in rats fed on a high-fat diet (HFD); type: in vivo
Method: as §1, §3, §4, §5

CC[C@H](C)[C@@H](C(=O)N[C@@H](CC(C)C)C(=O)N[C@@H](CO)C(=O)N[C@@H](CO)C(=O)N[C@H](C(=O)N[C@@H](CC(N)=O)C(=O)N[C@H](C(=O)NCC(=O)N[C@@H](CO)C(=O)N[C@@H](CC(N)=O)C(=O)N[C@H](C(=O)N1CCC[C@H]1C(N)=O)[C@@H](C)O)C(C)C)[C@@H](C)O)N(C)C(=O)[C@H](C)NC(=O)CN(C)C(=O)[C@H](Cc1ccccc1)NC(=O)[C@H](CC(N)=O)NC(=O)[C@H](CC(N)=O)NC(=O)[C@H](CO)NC(=O)[C@H](CO)NC(=O)[C@H](CCCNC(=N)N)NC(=O)[C@H](Cc1c[nH]cn1)NC(=O)[C@H](CC(C)C)NC(=O)[C@H](Cc1ccccc1)NC(=O)[C@H](CCC(=O)O)NC(=O)[C@H](C)NC(=O)[C@H](CC(C)C)NC(=O)[C@H](CCCNC(=N)N)NC(=O)[C@H](CCC(N)=O)NC(=O)[C@@H](NC(=O)[C@H](C)NC(=O)[C@@H]1CSSC[C@H](NC(=O)[C@H](CCCNC(=N)N)NC(=O)CC[C@H](NC(=O)CCCCCCCCCCCCCCCCCCC(=O)O)C(=O)O)C(=O)N[C@@H](CC(N)=O)C(=O)N[C@@H]([C@@H](C)O)C(=O)N[C@@H](C)C(=O)N[C@@H]([C@@H](C)O)C(=O)N1)[C@@H](C)O [Compound 18, [19CD]-isoGlu-RC()NTATC()ATQRLAEFLHRSSNNF-Gly(Me)-A-Ile(Me)-LSSTNVGSNTP-NH2] ({C20 diacid-γGlu}-RCNTATCATQRLAEFLHRSSNNF[Sar]A[NMeI]LSSTNVGSNTP-NH2; disulfide 2-7)
caloric intake deriving from LFD [1]: significant increase in caloric intake deriving from LFD
body weight gain ([1]; rats self-selecting LFD/HFD): reduction of body weight gain
total caloric intake combined from both diets ([1]; rats self-selecting LFD/HFD): a decrease in the total caloric intake
body weight gain (Male Sprague Dawley rats [2]): reduction
caloric intake deriving from LFD (Male Sprague Dawley rats [2]): significant increase
terminal blood glucose levels (Male Sprague Dawley rats [2]): unaffected
total caloric intake combined from both diets (Male Sprague Dawley rats [2]): decrease
anti-obesity effects with administration every 4th day (HFD-fed rats; 5 nmol/kg sc, every 4th day, 4 weeks): effects similar to those of Compound 18 dosed QW
mass of fat depots (HFD-fed rats; 4 weeks treatment): a decrease in mass of fat depots
food intake (HFD-fed rats; 4 weeks treatment, vs. vehicle): significantly decreased food intake
terminal liver fat mass (HFD-fed rats; 5 and 30 nmol/kg, QW, 4 weeks): a decrease in terminal liver fat mass
mass of fat depots (Male Sprague Dawley rats [3]; 4 weeks treatment): decrease
food intake (Male Sprague Dawley rats [3]; 4 weeks treatment, vs. vehicle): significantly decreased
terminal liver fat mass (Male Sprague Dawley rats [3]; 5 and 30 nmol/kg, QW, 4 weeks): decrease
reduction in body weight gain at the end of the study (Male Sprague Dawley rats [3]; high-dose group (30 nmol/kg sc, QW), 4 weeks): 26%

Reference: patent EP3046573B1, “AMYLIN ANALOGUES” (Zealand Pharma A/S, priority 2013, dated 2015)
